Measured values reported in patent US20170051112A1, “RESIN COMPOSITION SUITABLE FOR PRINTING AND PRINTING METHOD UTILIZING THE SAME” (MONTANUNIVERSITÄT LEOBEN, priority 2014, published 2017).

How the values were obtained:
[1] = Maximum reaction speed by Photo Differential Scanning Calorimetry (Photo-DSC); conditions: yne monomer with TMPMP and 5 wt.-% photoinitiator mixture (comparatives without thiol); 1 W/cm^2, 50° C., nitrogen
Procedure: The maximum reaction speed of various monomers was evaluated by means of Photo Differential Scanning Calorimetry (Photo-DSC). 8 mg of the respective test mixtures consisting of yne monomer (as shown in the following table 1) and thiol monomer (trimethylpropane tri(3-mercaptopropionate), TMPMP) as well as 5 wt.-% of a photoinitiator mixture (2-hydroxy-2-methyl-1-phenyl propanone/diphenyl 2,4,6-trimethylbenzoyl phosphane oxide, 50 wt.-%/50 wt.-%) were provided. As comparative test mixtures, acrylate and methacrylate without thiol monomer, but together with 5 wt.-% of the same photoinitiator mixture were provided. The test mixtures were placed in a crucible of aluminium and irradiated with an Omnicure® lamp at an intensity of 1 W/cm^2 at 50° C. under a nitrogen gas atmosphere to thereby cure the test mixtures.
The times (tmax) for reaching the maximum reaction enthalpy indicate the reactivity of the photo-reactive systems. FIG. 1 is a graphical illustration of the test results (tmax) further showing the chemical structural formulas of the tested alkyne monomers and comparative (meth)acryl monomers.

[2] = system: L929 mice fibroblast cells; assay: Cytotoxicity (residual protein content of the cells); format: cell-based; conditions: for EC50: concentration at which 50% of the L929 cells are damaged; for EC50 / Concentration limit: incubation 48 h; for Cytotoxicity, in words: L929 cells; for Concentration limit: toxicological concentration limit: reduction of protein content of L929 cells by more than 30% relative to negative control
Procedure: The cytotoxicity of various monomers was determined by a certified laboratory by means of L929 mice fibroblast cells. As a (toxic) positive control, Triton X 100 was added to L929 cells with a final concentration of 1% (v/v). As a (non-toxic) negative control, a cell culture medium was used.
After completion of the incubation, the residual protein content of the cells was determined. A reduction of the protein content from L929 cells by more than 30%, relative to the negative control, was evaluated as cytotoxic (which corresponds to the toxicological concentration limit). From this, the half maximal effective concentration (EC50), at which 50% of the cells are damaged, can be calculated.

[3] = Measurement of viscosity (cone-and-plate viscosimeter); format: physicochemical; conditions: for Viscosity at 25° C.: constant shear rate 300 s^-1, 25° C.; for Viscosity, in words: 25° C.
Procedure: For measuring the viscosity, an MC 200 cone-and-plate viscosimeter from Anton Paar GmbH (cone unit MK 22/50 mm, 10) was used. First, the shear rate was varied with a stepped slope and subsequently the viscosity was determined at a constant shear rate (300 s^−1) every 30 seconds. The measurement was carried out at 25° C.

Compound	tmax (time for reaching the maximum reaction enthalpy) [1] [s]	EC50 [2] [µM]	Viscosity at 25° C. [3] [mPa*s]	Cytotoxicity, in words [2]	Concentration limit [2] [µM]	Viscosity, in words [3]	EC50 ([2]; Mus musculus) [µM]
1,4-butanediol dibut-1-ynyl carbonate	2.46						
1,4-butanediol dipropargyl carbonate	3.00	550					
C=CC(=O)OCCCCOC(=O)C=C [1,4-butanediol diacrylate, reference compound]	1.80		4.3	particularly cytotoxic	<160		
CCC#COCCCCOC#CCC [1,4-butanediol dibut-1-ynyl ether]	2.22		6.1	excellently low cytotoxicity	>1100	relatively low values	2000
C=C(C)C(=O)OCCCCOC(=O)C(=C)C [1,4-butanediol dimethacrylate, reference compound]	6.72		4.6	particularly cytotoxic	<160		
C#CCOCCCCOCC#C [1,4-butanediol dipropargyl ether]	5.12		4.7	excellently low cytotoxicity	>1600	relatively low values	3000
CCC#COCCOC(COCC)OC#CCC (centres unmarked) [1,4-triethyleneglycol dibut-1-ynyl ether]	2.46		17.2				
C#CCOC(=O)OCC(CC)(COC(=O)OCC#C)COC(=O)OCC#C [Trimethylolpropane tripropargyl carbonate]	1.92						
